Among the data in ChEMBL document CHEMBL3862026, “Synthesis and biological evaluation of ranitidine analogs as multiple-target-directed cognitive enhancers for the treatment of Alzheimer's disease” (Bioorg Med Chem Lett, 2016) are inhibition and IC50 values, retold here.

Test [1] addresses T1, Muscarinic acetylcholine receptor M4 (Rattus norvegicus) (UniProt P08485).
T1 sequence (whole entry): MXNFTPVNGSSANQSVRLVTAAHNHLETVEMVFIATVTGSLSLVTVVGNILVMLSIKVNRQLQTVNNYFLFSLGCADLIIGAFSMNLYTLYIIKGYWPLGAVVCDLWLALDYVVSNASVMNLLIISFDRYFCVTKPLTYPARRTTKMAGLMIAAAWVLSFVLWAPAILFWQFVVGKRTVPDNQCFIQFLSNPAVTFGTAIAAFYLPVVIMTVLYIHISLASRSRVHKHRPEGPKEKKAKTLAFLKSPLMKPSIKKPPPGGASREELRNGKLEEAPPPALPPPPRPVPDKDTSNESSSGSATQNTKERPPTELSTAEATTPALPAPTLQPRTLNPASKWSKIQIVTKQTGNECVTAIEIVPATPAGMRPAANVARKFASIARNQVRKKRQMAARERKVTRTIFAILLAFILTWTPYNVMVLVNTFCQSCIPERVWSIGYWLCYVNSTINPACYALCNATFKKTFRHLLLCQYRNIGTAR
Nature of the test: Displacement of [3H]QNB from muscarinic M4 receptor in rat brain homogenates at 1 uM after 60 mins relative to control. It is filed as tissue-based. A general note: In a radioligand displacement assay an active substance lowers the binding of a labelled ligand.

Test [2] addresses T2, Muscarinic acetylcholine receptor M1 (Rattus norvegicus) (UniProt P08482).
T2 sequence (whole entry): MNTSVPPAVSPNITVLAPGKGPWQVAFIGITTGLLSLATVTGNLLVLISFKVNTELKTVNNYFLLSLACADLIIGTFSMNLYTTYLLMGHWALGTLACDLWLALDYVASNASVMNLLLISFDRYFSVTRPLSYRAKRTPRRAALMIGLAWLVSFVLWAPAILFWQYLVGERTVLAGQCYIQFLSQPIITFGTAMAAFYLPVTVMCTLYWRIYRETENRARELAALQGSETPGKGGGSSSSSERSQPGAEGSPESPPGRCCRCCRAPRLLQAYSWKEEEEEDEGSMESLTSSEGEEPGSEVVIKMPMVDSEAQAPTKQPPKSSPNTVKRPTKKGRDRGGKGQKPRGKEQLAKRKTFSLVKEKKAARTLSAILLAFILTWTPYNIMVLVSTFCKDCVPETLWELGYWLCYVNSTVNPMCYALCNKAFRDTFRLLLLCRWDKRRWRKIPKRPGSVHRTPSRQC
The experiment in a line: Displacement of [3H]QNB from muscarinic M1 receptor in rat brain homogenates at 1 uM after 60 mins relative to control. Format: tissue-based.

The target in another test is Acetylcholinesterase (Electrophorus electricus, UniProt O42275). The experiment in a line: Inhibition of electric eel AChE using acetylthiocholine as substrate preincubated for 8 mins followed by substrate addition by Ellman's method. For orientation: In Ellman's method for cholinesterases, released thiocholine reacts with DTNB.
Sequence of Acetylcholinesterase (O42275 whole entry): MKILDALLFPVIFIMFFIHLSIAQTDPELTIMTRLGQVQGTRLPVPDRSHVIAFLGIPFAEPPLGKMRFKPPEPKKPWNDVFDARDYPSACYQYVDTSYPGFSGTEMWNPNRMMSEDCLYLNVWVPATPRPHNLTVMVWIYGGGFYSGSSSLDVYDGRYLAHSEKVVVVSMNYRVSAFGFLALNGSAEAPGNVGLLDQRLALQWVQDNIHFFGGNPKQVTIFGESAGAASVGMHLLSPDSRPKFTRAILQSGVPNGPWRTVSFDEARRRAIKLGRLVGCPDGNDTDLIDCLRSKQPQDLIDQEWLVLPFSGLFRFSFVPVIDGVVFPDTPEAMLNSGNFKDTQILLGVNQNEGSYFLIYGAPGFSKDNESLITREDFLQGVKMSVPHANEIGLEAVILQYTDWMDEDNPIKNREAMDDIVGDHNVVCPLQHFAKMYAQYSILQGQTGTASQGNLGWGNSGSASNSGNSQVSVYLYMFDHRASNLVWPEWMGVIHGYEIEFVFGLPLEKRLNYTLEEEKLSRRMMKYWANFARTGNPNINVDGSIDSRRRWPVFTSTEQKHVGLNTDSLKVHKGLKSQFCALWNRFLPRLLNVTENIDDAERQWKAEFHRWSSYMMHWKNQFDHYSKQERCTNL
The target of a further test is Cholinesterase (Equus caballus, UniProt P81908). The experiment in a line: Inhibition of equine serum BuChE using butyrylthiocholine as substrate preincubated for 8 mins followed by substrate addition by Ellman's method.
Sequence of Cholinesterase (P81908 whole entry): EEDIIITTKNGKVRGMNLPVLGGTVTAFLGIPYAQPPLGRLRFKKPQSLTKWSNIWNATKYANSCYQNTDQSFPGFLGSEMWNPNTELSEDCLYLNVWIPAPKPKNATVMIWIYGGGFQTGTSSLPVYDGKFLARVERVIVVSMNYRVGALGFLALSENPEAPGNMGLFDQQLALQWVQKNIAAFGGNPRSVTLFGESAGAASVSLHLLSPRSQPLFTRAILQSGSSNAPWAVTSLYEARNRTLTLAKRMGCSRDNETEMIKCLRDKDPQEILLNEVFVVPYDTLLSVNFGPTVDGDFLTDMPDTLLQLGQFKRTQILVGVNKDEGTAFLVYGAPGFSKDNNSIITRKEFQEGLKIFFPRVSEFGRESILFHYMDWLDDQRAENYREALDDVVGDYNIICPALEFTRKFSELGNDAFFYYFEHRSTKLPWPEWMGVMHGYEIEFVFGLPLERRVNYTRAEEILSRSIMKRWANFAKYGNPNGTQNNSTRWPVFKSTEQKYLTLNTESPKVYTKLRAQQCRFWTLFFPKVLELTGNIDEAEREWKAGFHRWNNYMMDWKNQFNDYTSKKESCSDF
Test [3] deals with T3, Muscarinic acetylcholine receptor M2 (Rattus norvegicus) (UniProt P10980).
T3 sequence (whole entry): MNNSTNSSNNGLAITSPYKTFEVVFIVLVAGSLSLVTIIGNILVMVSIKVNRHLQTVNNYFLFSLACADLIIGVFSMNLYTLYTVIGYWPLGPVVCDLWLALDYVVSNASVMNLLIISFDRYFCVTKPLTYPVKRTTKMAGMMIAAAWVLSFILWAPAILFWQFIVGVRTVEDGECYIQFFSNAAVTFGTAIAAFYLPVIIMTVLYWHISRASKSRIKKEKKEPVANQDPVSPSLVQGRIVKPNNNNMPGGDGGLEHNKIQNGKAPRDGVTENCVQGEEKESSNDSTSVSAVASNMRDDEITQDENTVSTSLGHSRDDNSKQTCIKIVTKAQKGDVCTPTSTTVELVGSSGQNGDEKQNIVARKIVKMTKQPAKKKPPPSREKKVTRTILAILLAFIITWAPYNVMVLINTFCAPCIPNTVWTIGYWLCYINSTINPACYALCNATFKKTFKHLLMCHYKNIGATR
Nature of the test: Displacement of [3H]QNB from muscarinic M2 receptor in rat brain homogenates at 1 uM after 60 mins relative to control. Format: tissue-based.

Test [4] deals with Muscarinic acetylcholine receptor M3 (Rattus norvegicus) (UniProt P08483). The experiment in a line: Displacement of [3H]QNB from muscarinic M3 receptor in rat brain homogenates at 1 uM after 60 mins relative to control. Format: tissue-based.
Sequence of Muscarinic acetylcholine receptor M3 (Rattus norvegicus) (P08483 whole entry, looked up): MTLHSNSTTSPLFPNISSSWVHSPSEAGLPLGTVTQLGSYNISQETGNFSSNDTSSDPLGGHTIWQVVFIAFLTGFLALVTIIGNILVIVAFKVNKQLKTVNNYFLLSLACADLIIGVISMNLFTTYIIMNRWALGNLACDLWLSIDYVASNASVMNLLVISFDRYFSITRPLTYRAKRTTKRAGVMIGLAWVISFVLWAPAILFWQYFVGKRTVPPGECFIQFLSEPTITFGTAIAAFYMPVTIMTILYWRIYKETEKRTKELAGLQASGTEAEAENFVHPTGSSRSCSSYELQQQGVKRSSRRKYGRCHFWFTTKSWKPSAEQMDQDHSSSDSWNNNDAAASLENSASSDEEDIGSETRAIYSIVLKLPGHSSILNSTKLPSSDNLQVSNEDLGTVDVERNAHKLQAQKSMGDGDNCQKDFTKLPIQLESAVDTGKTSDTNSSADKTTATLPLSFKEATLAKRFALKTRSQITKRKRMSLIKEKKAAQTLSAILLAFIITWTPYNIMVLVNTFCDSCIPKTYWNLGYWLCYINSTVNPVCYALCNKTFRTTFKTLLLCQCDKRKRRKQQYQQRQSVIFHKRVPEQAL

As a reminder, the inhibition is the relative decrease from the control value, in per cent. The IC50 is the point on the concentration scale where inhibition reaches its midpoint.

On to `CN(C)Cc1ccc(CSCCNc2ccc(Cl)nn2)o1`, for which the inhibition in test [1] came to 7.7%; in test [2], 25.2%; in test [3], 9.8%; in test [4], 2.3%. Besides, the values for the IC50 on Acetylcholinesterase and against Cholinesterase were 10.4 µM and greater than 50 µM, respectively.

For `CN(C)Cc1ccc(CSCCNc2nnc(-c3cccs3)c(-c3cccs3)c2[N+](=O)[O-])o1`, the values for the IC50 against Acetylcholinesterase and on Cholinesterase were 0.35 µM and 2.28 µM, respectively.

`Cc1ccc(S(=O)(=O)NCCSCc2ccc(CN(C)C)o2)cc1`: the IC50 against Acetylcholinesterase is greater than 50 µM; on Cholinesterase, 47.2 µM.

For `CN(C)Cc1ccc(CSCCNc2nnc(-c3ccccc3)c(-c3ccccc3)c2[N+](=O)[O-])o1`, the inhibition in test [1] amounted to 48%; in test [2], 76%; in test [3], 51%; in test [4], 73%. The IC50 on Acetylcholinesterase is 0.19 µM; against Cholinesterase, 7.05 µM.

As to `CN(C)Cc1ccc(CSCCNC(=O)Cc2ccccc2Nc2c(Cl)cccc2Cl)o1`, the inhibition in test [1] turned out to be 47.3%; in test [2], 60.1%; in test [3], 27.4%; in test [4], 43.5%. Moreover, the IC50 against Cholinesterase is 7.65 µM.

On to `CN(C)Cc1ccc(CSCCN2C(=O)c3cccc4cc([N+](=O)[O-])cc(c34)C2=O)o1`, for which the IC50 against Acetylcholinesterase amounted to 0.15 µM; against Cholinesterase it was 8.01 µM.

In the case of `CN(C)Cc1ccc(CSCCNc2ncccc2C#N)o1`, the IC50 worked out at 5.34 µM against Acetylcholinesterase and 8.36 µM against Cholinesterase.

As to `Cc1nnc(NCCSCc2ccc(CN(C)C)o2)c([N+](=O)[O-])c1C`, the inhibition in test [1] came out at 67%; in test [2] it was 74%; in test [3], 63%; in test [4], 48%. On Acetylcholinesterase, half-maximal inhibition (IC50) was put at 2.72 µM.

Consider `CN(C)Cc1ccc(CSCCN2C(=O)c3ccccc3C2=O)o1`, for which the 50% inhibitory concentration (IC50) turned out to be 3.57 µM against Acetylcholinesterase and 14.5 µM against Cholinesterase.

For `Cc1cccc(Nc2ccccc2C(=O)NCCSCc2ccc(CN(C)C)o2)c1C`, the inhibition in test [1] came to 33.8%; in test [2], 77.4%; in test [3] it was 50.8%; in test [4], 69.6%. Further, the IC50 against Acetylcholinesterase and on Cholinesterase was greater than 50 µM in each case.

On to `CN(C)Cc1ccc(CSCCNc2nnccc2[N+](=O)[O-])o1`, for which the inhibition in test [1] came to 74%; in test [2] it was 80%; in test [3], 97%; in test [4], 32%. The IC50 against Acetylcholinesterase is 0.47 µM.

Turning to `Cc1cc([N+](=O)[O-])c(NCCSCc2ccc(CN(C)C)o2)nn1`, the inhibition in test [1] is 57%; in test [2], 79%; in test [3], 78%; in test [4], 46%. In addition, the IC50 against Acetylcholinesterase amounted to 0.68 µM; at Cholinesterase, 28.4 µM.

In the case of `CC1CC(=O)N(CCSCc2ccc(CN(C)C)o2)C1=O` (stereo not given), the IC50 against Acetylcholinesterase is 33.4 µM; at Cholinesterase, greater than 50 µM.

Consider `CN(C)Cc1ccc(CSCCN/C(=C/[N+](=O)[O-])N/N=C/c2ccccc2)o1`, for which the inhibition turned out to be 62.3% in test [1], 88.5% in test [2], 67% in test [3] and 66.6% in test [4]. Moreover, the IC50 at Acetylcholinesterase turned out to be 1.18 µM; at Cholinesterase, 2.96 µM.

Regarding `CS/C(=N\S(=O)(=O)c1ccc(C)cc1)NCCSCc1ccc(CN(C)C)o1`, the inhibition in test [1] is 4.2%; in test [2], 37.5%; in test [4], 18.5%. The IC50 on Acetylcholinesterase and on Cholinesterase was greater than 50 µM throughout.

On to `CN(C)Cc1ccc(CSCCNc2nc(N)n[nH]2)o1`, for which the inhibition is 43.6% in test [1], 57.4% in test [2], 71.3% in test [3] and 30.1% in test [4]. Also, the half-inhibitory concentration (IC50) at Acetylcholinesterase and against Cholinesterase was greater than 50 µM throughout.

As for `CN(C)Cc1ccc(CSCCNc2nncc(-c3ccccc3)c2[N+](=O)[O-])o1`, the inhibition in test [1] stood at 18%; in test [2] it was 40%; in test [3], 37%; in test [4], 27%. Moreover, the results for the IC50 on Acetylcholinesterase and against Cholinesterase were 0.46 µM and 22.7 µM, respectively.

In the case of `CN(C)Cc1ccc(CSCCN2C(=O)c3cccc4cccc(c34)C2=O)o1`, the IC50 against Acetylcholinesterase was 1.27 µM; on Cholinesterase, 7.21 µM.

In the case of `CCc1nnc(NCCSCc2ccc(CN(C)C)o2)c([N+](=O)[O-])c1CC`, the IC50 against Acetylcholinesterase turned out to be 2.54 µM; against Cholinesterase, 18.8 µM.

For the compound `CN(C)Cc1ccc(CSCCN2C(=O)CCC2=O)o1`, the figures for the IC50 on Acetylcholinesterase and against Cholinesterase were 11.8 µM and greater than 50 µM, respectively.

In the case of `CN(C)Cc1ccc(CSCCN2C(=O)c3ccc([N+](=O)[O-])cc3C2=O)o1`, the figures for the IC50 against Acetylcholinesterase and on Cholinesterase were 46 µM and greater than 50 µM, respectively.

Consider `Cc1c(-c2ccccc2)nnc(NCCSCc2ccc(CN(C)C)o2)c1[N+](=O)[O-]`, for which the inhibition was 58% in test [1], 84% in test [2], 72% in test [3] and 63% in test [4]. The results for the IC50 at Acetylcholinesterase and at Cholinesterase were 0.16 µM and 3.71 µM, respectively.

Take `CN(C)Cc1ccc(CSCCN/C(=C/[N+](=O)[O-])N2CCCCC2)o1`: the inhibition in test [1] came out at 47.7%; in test [2], 72.1%; in test [3], 54%; in test [4] it was 41.5%. For the same compound, the results for the IC50 against Acetylcholinesterase and on Cholinesterase were 4.04 µM and 21.2 µM, respectively.

With `Cc1nnc(NCCSCc2ccc(CN(C)C)o2)c([N+](=O)[O-])c1-c1ccccc1`, the inhibition is 37% in test [1], 60% in test [2], 40% in test [3] and 52% in test [4]. This compound yielded an IC50 on Acetylcholinesterase of 0.72 µM.

Regarding `CN(C)Cc1ccc(CSCCNc2ncccn2)o1`, the inhibition in test [1] came out at 24.9%; in test [2] it was 56.2%; in test [3], 50.8%; in test [4], 24.3%. Also, the IC50 against Acetylcholinesterase came to 16.2 µM; against Cholinesterase, 7.65 µM.

Take `C=C1C(C)=NN/C(=C\[N+](=O)[O-])N1CCSCc1ccc(CN(C)C)o1`: the inhibition in test [1] stood at 92.1%; in test [2], 88.8%; in test [3] it was 81%; in test [4], 90.4%. Besides, the IC50 at Acetylcholinesterase is 1.65 µM; at Cholinesterase, 7.1 µM.

`CN(C)Cc1ccc(CSCCNc2nc(N)no2)o1`: the inhibition in test [1] was found to be 42.7%; in test [2], 69.9%; in test [3], 72.8%; in test [4], 49.8%. Also, the IC50 on Acetylcholinesterase and against Cholinesterase was greater than 50 µM each time.

In the case of `CN(C)Cc1ccc(CSCCNC(=O)c2ccccc2-c2ccccc2C(=O)O)o1`, the IC50 against Acetylcholinesterase and against Cholinesterase was greater than 50 µM each time.

For the compound `CN(C)Cc1ccc(CSCCNc2nnc(-c3ccccc3)cc2[N+](=O)[O-])o1`, the inhibition stood at 16% in test [1], 40% in test [2], 34% in test [3] and 38% in test [4]. The IC50 at Acetylcholinesterase turned out to be 0.26 µM; against Cholinesterase, 4.46 µM.
